Earlier results as cited in patent US20040170996A1, “Cytotoxic T-Lymphocyte antigen-4 or interleukin-10 polymorphisms as predictors of response to therapeutic intervention” (priority 2001, published 2004).

Test system: interleukin-10 production
Details: several in vitro studies

Question: For `NC(=O)c1ncn([C@@H]2O[C@H](CO)[C@@H](O)[C@H]2O)n1` [Ribavirin, ribavirin], which “Effect on interleukin-10 production” value is on record?
Answer: downregulate interleukin-10 production
